In brackets after ≈: the same amount, converted by molar mass.
Key:
Assay type in all cases: cell-based
H. flu = tested on: H. flu
E. coli = test: MIC values, E. coli (Tables 1-4)
S. pneumo. = test: MIC values, S. pneumo. (Tables 1-4)
E. faecalis = test: MIC values, E. faecalis (Tables 1-4)
S. aureus = test: MIC values, S. aureus (Tables 1-4)

Row | Structure (SMILES) | MIC H. flu (H. flu) | MIC E. coli (E. coli) | MIC S. pneumo. (S. pneumo.) | MIC E. faecalis (E. faecalis) | MIC S. aureus (S. aureus)
1 | CCCC(=O)NC1CCN(c2cc(O)c3nc4c5c6c7c(C)c(O)c5c(=O)c(c-4oc3c2)NC(=O)/C(C)=C\C=C\[C@H](C)[C@H](O)[C@@H](C)[C@@H](O)[C@@H](C)[C@H](O)[C@H](C)[C@@H](OC)/C=C/O[C@@](C)(O7)C6=O)CC1 [Compound 36] | 250 ng/mL (≈ 270 nM) | >8000 ng/mL | 0.03 ng/mL (≈ 0.0324 nM) | 2000 ng/mL (≈ 2160 nM) | 4 ng/mL (≈ 4.31 nM)
2 | CCNC(=O)NC1CCN(c2cc(O)c3nc4c5c6c7c(C)c(O)c5c(=O)c(c-4oc3c2)NC(=O)/C(C)=C\C=C\[C@H](C)[C@H](O)[C@@H](C)[C@@H](O)[C@@H](C)[C@H](O)[C@H](C)[C@@H](OC)/C=C/O[C@@](C)(O7)C6=O)CC1 [Compound 37] | 250 ng/mL (≈ 269 nM) | >8000 ng/mL | 4 ng/mL (≈ 4.31 nM) | 2000 ng/mL (≈ 2160 nM) | 30 ng/mL (≈ 32.3 nM)
3 | CO[C@H]1/C=C/O[C@@]2(C)Oc3c(C)c(O)c4c(=O)c(c5oc6cc(N7CCC(NS(=O)(=O)C(F)(F)F)CC7)cc(O)c6nc-5c4c3C2=O)NC(=O)/C(C)=C\C=C\[C@H](C)[C@H](O)[C@@H](C)[C@@H](O)[C@@H](C)[C@H](O)[C@@H]1C [Compound 38] | 250 ng/mL (≈ 253 nM) | >8000 ng/mL | 15 ng/mL (≈ 15.2 nM) | 8000 ng/mL (≈ 8090 nM) | 120 ng/mL (≈ 121 nM)
4 | CO[C@H]1/C=C/O[C@@]2(C)Oc3c(C)c(O)c4c(=O)c(c5oc6cc(N7CCC(N)CC7)cc(O)c6nc-5c4c3C2=O)NC(=O)/C(C)=C\C=C\[C@H](C)[C@H](O)[C@@H](C)[C@@H](O)[C@@H](C)[C@H](O)[C@@H]1C [Compound 39] | 250 ng/mL (≈ 292 nM) | >8000 ng/mL | 1 ng/mL (≈ 1.17 nM) | 2000 ng/mL (≈ 2330 nM) | 30 ng/mL (≈ 35 nM)
5 | CCOC(=O)N1CCCC2CN(c3cc(O)c4nc5c6c7c8c(C)c(O)c6c(=O)c(c-5oc4c3)NC(=O)C(C)=CC=CC(C)C(O)C(C)C(O)C(C)C(OC(C)=O)C(C)C(OC)C=COC(C)(O8)C7=O)CC21 (centres unmarked) [Compound 40] | 500 ng/mL (≈ 501 nM) | >8000 ng/mL | 8 ng/mL (≈ 8.02 nM) | 1000 ng/mL (≈ 1000 nM) | 60 ng/mL (≈ 60.2 nM)
6 | COCCOC(=O)NC1CCN(c2cc(O)c3nc4c5c6c7c(C)c(O)c5c(=O)c(c-4oc3c2)NC(=O)/C(C)=C\C=C\[C@H](C)[C@H](O)[C@@H](C)[C@@H](O)[C@@H](C)[C@H](OC(C)=O)[C@H](C)[C@@H](OC)/C=C/O[C@@](C)(O7)C6=O)CC1 [Compound 41] | 2000 ng/mL (≈ 2000 nM) | >8000 ng/mL | 0.5 ng/mL (≈ 0.499 nM) | >8000 ng/mL | 250 ng/mL (≈ 250 nM)
7 | CCOC(=O)N1CCCC2CN(c3cc(O)c4nc5c6c7c8c(C)c(O)c6c(=O)c(c-5oc4c3)NC(=O)C(C)=CC=CC(C)C(O)C(C)C(O)C(C)C(O)C(C)C(OC)C=COC(C)(O8)C7=O)CC21 (centres unmarked) [Compound 42] | 500 ng/mL (≈ 524 nM) | 8000 ng/mL (≈ 8380 nM) | 0.12 ng/mL (≈ 0.126 nM) | 2000 ng/mL (≈ 2090 nM) | 8 ng/mL (≈ 8.38 nM)
8 | CO[C@H]1/C=C/O[C@@]2(C)Oc3c(C)c(O)c4c(=O)c(c5oc6cc(N7CCC(NC(C)=O)CC7)cc(O)c6nc-5c4c3C2=O)NC(=O)/C(C)=C\C=C\[C@H](C)[C@H](O)[C@@H](C)[C@@H](O)[C@@H](C)[C@H](O)[C@@H]1C [Compound 43] | 500 ng/mL (≈ 556 nM) | >8000 ng/mL | 2 ng/mL (≈ 2.22 nM) | 2000 ng/mL (≈ 2220 nM) | 30 ng/mL (≈ 33.4 nM)
9 | CO[C@H]1/C=C/O[C@@]2(C)Oc3c(C)c(O)c4c(=O)c(c5oc6cc(N7CCC(NC(C)=O)CC7)cc(O)c6nc-5c4c3C2=O)NC(=O)/C(C)=C\C=C\[C@H](C)[C@H](O)[C@@H](C)[C@@H](O)[C@@H](C)[C@H](OC(C)=O)[C@@H]1C [Compound 44] | 250 ng/mL (≈ 266 nM) | >8000 ng/mL | 8 ng/mL (≈ 8.5 nM) | 2000 ng/mL (≈ 2130 nM) | 60 ng/mL (≈ 63.8 nM)
10 | CO[C@H]1/C=C/O[C@@]2(C)Oc3c(C)c(O)c4c(=O)c(c5oc6cc(N7CCC(NC(=O)SC)CC7)cc(O)c6nc-5c4c3C2=O)NC(=O)/C(C)=C\C=C\[C@H](C)[C@H](O)[C@@H](C)[C@@H](O)[C@@H](C)[C@H](OC(C)=O)[C@@H]1C [Compound 45] | 500 ng/mL (≈ 514 nM) | 8000 ng/mL (≈ 8220 nM) | 1 ng/mL (≈ 1.03 nM) | 4000 ng/mL (≈ 4110 nM) | 15 ng/mL (≈ 15.4 nM)
11 | COC1C=COC2(C)Oc3c(C)c(O)c4c(=O)c(c5oc6cc(N7CC8CCCN(C(C)=O)C8C7)cc(O)c6nc-5c4c3C2=O)NC(=O)C(C)=CC=CC(C)C(O)C(C)C(O)C(C)C(O)C1C (centres unmarked) [Compound 46] | 500 ng/mL (≈ 541 nM) | >8000 ng/mL | 0.06 ng/mL (≈ 0.0649 nM) | 2000 ng/mL (≈ 2160 nM) | 4 ng/mL (≈ 4.32 nM)
12 | COC1C=COC2(C)Oc3c(C)c(O)c4c(=O)c(c5oc6cc(N7CC8CCCN(C(C)=O)C8C7)cc(O)c6nc-5c4c3C2=O)NC(=O)C(C)=CC=CC(C)C(O)C(C)C(O)C(C)C(OC(C)=O)C1C (centres unmarked) [Compound 47] | 250 ng/mL (≈ 259 nM) | >8000 ng/mL | 2 ng/mL (≈ 2.07 nM) | 1000 ng/mL (≈ 1030 nM) | 8 ng/mL (≈ 8.27 nM)
13 | CO[C@H]1/C=C/O[C@@]2(C)Oc3c(C)c(O)c4c(=O)c(c5oc6cc(N7CCC(NC(=O)OC(C)(C)C)CC7)cc(O)c6nc-5c4c3C2=O)NC(=O)/C(C)=C\C=C\[C@H](C)[C@H](O)[C@@H](C)[C@@H](O)[C@@H](C)[C@H](OC(C)=O)[C@@H]1C [Compound 48] | 1000 ng/mL (≈ 1000 nM) | >8000 ng/mL | 0.25 ng/mL (≈ 0.25 nM) | 2000 ng/mL (≈ 2000 nM) | 8 ng/mL (≈ 8.01 nM)
14 | CO[C@H]1/C=C/O[C@@]2(C)Oc3c(C)c(O)c4c(=O)c(c5oc6cc(N7CCC(NC(=O)N8CCC(NC(=O)SC)CC8)CC7)cc(O)c6nc-5c4c3C2=O)NC(=O)/C(C)=C\C=C\[C@H](C)[C@H](O)[C@@H](C)[C@@H](O)[C@@H](C)[C@H](OC(C)=O)[C@@H]1C [Compound 49] | 2000 ng/mL (≈ 1820 nM) | >8000 ng/mL | 0.5 ng/mL (≈ 0.455 nM) | 8000 ng/mL (≈ 7280 nM) | 60 ng/mL (≈ 54.6 nM)
15 | CO[C@H]1/C=C/O[C@@]2(C)Oc3c(C)c(O)c4c(=O)c(c5oc6cc(N7CCC(NC(=O)N8CCN(C)CC8)CC7)cc(O)c6nc-5c4c3C2=O)NC(=O)/C(C)=C\C=C\[C@H](C)[C@H](O)[C@@H](C)[C@@H](O)[C@@H](C)[C@H](OC(C)=O)[C@@H]1C [Compound 50] | 500 ng/mL (≈ 488 nM) | >8000 ng/mL | 0.12 ng/mL (≈ 0.117 nM) | 4000 ng/mL (≈ 3900 nM) | 30 ng/mL (≈ 29.3 nM)
16 | CCOC(=O)NCC1CCN(c2cc(O)c3nc4c5c6c7c(C)c(O)c5c(=O)c(c-4oc3c2)NC(=O)/C(C)=C\C=C\[C@H](C)[C@H](O)[C@@H](C)[C@@H](O)[C@@H](C)[C@H](OC(C)=O)[C@H](C)[C@@H](OC)/C=C/O[C@@](C)(O7)C6=O)CC1 [Compound 51] | 250 ng/mL (≈ 254 nM) | 8000 ng/mL (≈ 8120 nM) | 2 ng/mL (≈ 2.03 nM) | 8000 ng/mL (≈ 8120 nM) | 60 ng/mL (≈ 60.9 nM)
17 | CO[C@H]1/C=C/O[C@@]2(C)Oc3c(C)c(O)c4c(=O)c(c5oc6cc(N7CCC(NC(=O)OC(C)(C)C)CC7)cc(O)c6nc-5c4c3C2=O)NC(=O)/C(C)=C\C=C\[C@H](C)[C@H](O)[C@@H](C)[C@@H](O)[C@@H](C)[C@H](O)[C@@H]1C [Compound 52] | 120 ng/mL (≈ 125 nM) | >8000 ng/mL | 0.25 ng/mL (≈ 0.261 nM) | 4000 ng/mL (≈ 4180 nM) | 15 ng/mL (≈ 15.7 nM)
18 | COC1C=COC2(C)Oc3c(C)c(O)c4c(=O)c(c5oc6cc(N7CC8C(C7)C8N(C)C)cc(O)c6nc-5c4c3C2=O)NC(=O)C(C)=CC=CC(C)C(O)C(C)C(O)C(C)C(OC(C)=O)C1C (centres unmarked) [Compound 53] | 2000 ng/mL (≈ 2160 nM) | >8000 ng/mL | 8 ng/mL (≈ 8.65 nM) | 4000 ng/mL (≈ 4320 nM) | 60 ng/mL (≈ 64.9 nM)
19 | COC1C=COC2(C)Oc3c(C)c(O)c4c(=O)c(c5oc6cc(N7CC8C(C7)C8N(C)C)cc(O)c6nc-5c4c3C2=O)NC(=O)C(C)=CC=CC(C)C(O)C(C)C(O)C(C)C(O)C1C (centres unmarked) [Compound 54] | 250 ng/mL (≈ 283 nM) | >8000 ng/mL | 0.5 ng/mL (≈ 0.566 nM) | 2000 ng/mL (≈ 2260 nM) | 8 ng/mL (≈ 9.06 nM)
20 | CO[C@H]1/C=C/O[C@@]2(C)Oc3c(C)c(O)c4c(=O)c(c5oc6cc(N7CCC(CNC(C)=O)CC7)cc(O)c6nc-5c4c3C2=O)NC(=O)/C(C)=C\C=C\[C@H](C)[C@H](O)[C@@H](C)[C@@H](O)[C@@H](C)[C@H](OC(C)=O)[C@@H]1C [Compound 55] | 500 ng/mL (≈ 524 nM) | 8000 ng/mL (≈ 8380 nM) | 0.25 ng/mL (≈ 0.262 nM) | 1000 ng/mL (≈ 1050 nM) | 8 ng/mL (≈ 8.38 nM)
21 | CO[C@H]1/C=C/O[C@@]2(C)Oc3c(C)c(O)c4c(=O)c(c5oc6cc(N7CCC(CNC(C)=O)CC7)cc(O)c6nc-5c4c3C2=O)NC(=O)/C(C)=C\C=C\[C@H](C)[C@H](O)[C@@H](C)[C@@H](O)[C@@H](C)[C@H](O)[C@@H]1C [Compound 56] | 250 ng/mL (≈ 274 nM) | 8000 ng/mL (≈ 8760 nM) | 1 ng/mL (≈ 1.1 nM) | 120 ng/mL (≈ 131 nM) | 4 ng/mL (≈ 4.38 nM)
22 | CO[C@H]1/C=C/O[C@@]2(C)Oc3c(C)c(O)c4c(=O)c(c5oc6cc(N7CCC(c8ccccc8)CC7)cc(O)c6nc-5c4c3C2=O)NC(=O)/C(C)=C\C=C\[C@H](C)[C@H](O)[C@@H](C)[C@@H](O)[C@@H](C)[C@H](OC(C)=O)[C@@H]1C [Compound 57] | 500 ng/mL (≈ 521 nM) | 8000 ng/mL (≈ 8330 nM) | 0.5 ng/mL (≈ 0.521 nM) | 2000 ng/mL (≈ 2080 nM) | 8 ng/mL (≈ 8.33 nM)

From patent publication US20070142392A1, “Uses of rifamycins” (ActivBiotics, Inc., priority 2005, published 2007)
